Legend:
Type in all cases: in vivo
[1] = system: bedstraw (Galium aparine); assay: Test B pre-/postemergence; set-up: key: 0 is no effect; 10 is complete control
In short: (§1)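 Seeds were planted and sprayed preemergence, while plants at 2 to 18 cm (1- to 4-leaf stage) were sprayed postemergence at the same time, with test chemical in a non-phytotoxic solvent mixture containing surfactant. After twelve to sixteen days in a greenhouse, injury was rated visually against untreated controls on a 0–10 scale.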

corn (Zea mays) = assay: Test B pre-/postemergence; set-up: key: 0 is no effect; 10 is complete control
In short: as §1

[2] = system: crabgrass (Digitaria sanguinalis); assay: Test B pre-/postemergence; set-up: key: 0 is no effect; 10 is complete control
In short: as §1

[3] = system: giant foxtail (Setaria faberii); assay: Test B pre-/postemergence; set-up: key: 0 is no effect; 10 is complete control
In short: as §1

[4] = system: purple nutsedge (Cyperus rotundus); assay: Test B pre-/postemergence; set-up: key: 0 is no effect; 10 is complete control
In short: as §1

rape (Brassica napus) = assay: Test B pre-/postemergence; set-up: key: 0 is no effect; 10 is complete control
In short: as §1

soybean (Glycine max) = assay: Test B pre-/postemergence; set-up: key: 0 is no effect; 10 is complete control
In short: as §1

[5] = system: sugar beet (Beta vulgaris); assay: Test B pre-/postemergence; set-up: key: 0 is no effect; 10 is complete control
In short: as §1

[6] = system: velvetleaf (Abutilon theophrasti); assay: Test B pre-/postemergence; set-up: key: 0 is no effect; 10 is complete control
In short: as §1

[7] = system: wheat (Triticum aestivum); assay: Test B pre-/postemergence; set-up: key: 0 is no effect; 10 is complete control
In short: as §1

wild oat (Avena fatua) = assay: Test B pre-/postemergence; set-up: key: 0 is no effect; 10 is complete control
In short: as §1

[8] = system: bamyardgrass (Echinochloa crus-galli); assay: Test B flood test
In short: (§2)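 Plants were grown to the 2-leaf stage before treatment with test chemical, then held in a greenhouse for twelve to sixteen days. Injury was visually rated against untreated controls on a 0–10 scale, where 0 is no effect and 10 is complete control.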

[9] = system: duck salad (Heteranthera limosa); assay: Test B flood test
In short: as §2

rice (Oryza sativa) = assay: Test B flood test
In short: as §2

[10] = system: smallflower flatsedge (Cyperus difformis); assay: Test B flood test
In short: as §2

[11] = Rate 62 g/ha, Postemergence (flood test)
[12] = Rate 125 g/ha, Postemergence section (flood test species)
[13] = Rate 250 g/ha, Postemergence (flood test species)
[14] = Rate 500 g/ha, Postemergence (flood test species)

Cc1cnc(-n2ccc(C(F)(F)F)n2)nc1Cn1ccc(C(F)(F)F)n1 [Compound 52]
3: Corn plant response rating (corn (Zea mays); Rate 62 g/ha, Preemergence) | Plant response rating, Corn (corn (Zea mays); Rate 125 g/ha, Preemergence) | Nutsedge plant response rating ([4]; Rate 125 g/ha, Postemergence) | Plant response rating, Wheat ([7]; Rate 250 g/ha, Preemergence) | Wild oats plant response rating (wild oat (Avena fatua); Rate 62 g/ha, Preemergence) | Plant response rating, Rice (rice (Oryza sativa); [11])
8: Plant response rating, Bedstraw ([1]; Rate 125 g/ha, Preemergence) | Plant response rating, Corn (corn (Zea mays); Rate 500 g/ha, Preemergence) | Crabgrass plant response rating ([2]; Rate 125 g/ha, Postemergence) | Giant foxtail plant response rating ([3]; Rate 125 g/ha, Postemergence) | Plant response rating, Soybean (soybean (Glycine max); Rate 250 g/ha, Preemergence) | Plant response rating, Velvetleaf ([6]; Rate 62 g/ha, Postemergence) | Velvetleaf plant response rating ([6]; Rate 125 g/ha, Postemergence) | Plant response rating, Velvetleaf ([6]; Rate 250 g/ha, Postemergence) | Plant response rating, Wheat ([7]; Rate 500 g/ha, Postemergence) | Wild oats plant response rating (wild oat (Avena fatua); Rate 125 g/ha, Postemergence) | Plant response rating, Wild oats (wild oat (Avena fatua); Rate 250 g/ha, Postemergence) | Plant response rating, Barnyardgrass [8, 14]
7: Bedstraw plant response rating ([1]; Rate 62 g/ha, Preemergence) | Plant response rating, Corn (corn (Zea mays); Rate 250 g/ha, Preemergence) | Plant response rating, Corn (corn (Zea mays); Rate 500 g/ha, Postemergence) | Plant response rating, Giant foxtail ([3]; Rate 62 g/ha, Postemergence) | Plant response rating, Nutsedge ([4]; Rate 500 g/ha, Postemergence) | Plant response rating, Soybean (soybean (Glycine max); Rate 125 g/ha, Preemergence) | Wheat plant response rating ([7]; Rate 125 g/ha, Postemergence) | Plant response rating, Wheat ([7]; Rate 250 g/ha, Postemergence) | Plant response rating, Barnyardgrass [8, 13] | Plant response rating, Rice (rice (Oryza sativa); [13]) | Plant response rating, Rice (rice (Oryza sativa); [14])
0: Nutsedge plant response rating ([4]; Rate 62 g/ha, Preemergence)
6: Plant response rating, Corn (corn (Zea mays); Rate 250 g/ha, Postemergence) | Plant response rating, Crabgrass ([2]; Rate 62 g/ha, Postemergence) | Plant response rating, Wheat ([7]; Rate 500 g/ha, Preemergence) | Wild oats plant response rating (wild oat (Avena fatua); Rate 62 g/ha, Postemergence) | Barnyardgrass plant response rating [8, 12]
2: Wheat plant response rating ([7]; Rate 62 g/ha, Preemergence) | Plant response rating, Wheat ([7]; Rate 125 g/ha, Preemergence)
5: Corn plant response rating (corn (Zea mays); Rate 125 g/ha, Postemergence) | Plant response rating, Wild oats (wild oat (Avena fatua); Rate 125 g/ha, Preemergence) | Plant response rating, Barnyardgrass [8, 11] | Rice plant response rating (rice (Oryza sativa); [12])
4: Plant response rating, Corn (corn (Zea mays); Rate 62 g/ha, Postemergence) | Soybean plant response rating (soybean (Glycine max); Rate 62 g/ha, Preemergence) | Wheat plant response rating ([7]; Rate 62 g/ha, Postemergence)
10: Bedstraw plant response rating ([1]; Rate 125 g/ha, Postemergence) | Plant response rating, Bedstraw ([1]; Rate 250 g/ha, Postemergence) | Plant response rating, Bedstraw ([1]; Rate 500 g/ha, Postemergence) | Plant response rating, Bedstraw ([1]; Rate 500 g/ha, Preemergence) | Plant response rating, Crabgrass ([2]; Rate 125 g/ha, Preemergence) | Plant response rating, Crabgrass ([2]; Rate 250 g/ha, Preemergence) | Plant response rating, Crabgrass ([2]; Rate 500 g/ha, Preemergence) | Plant response rating, Giant foxtail ([3]; Rate 250 g/ha, Preemergence) | Plant response rating, Giant foxtail ([3]; Rate 500 g/ha, Preemergence) | Plant response rating, Rape (rape (Brassica napus); Rate 125 g/ha, Preemergence) | Plant response rating, Rape (rape (Brassica napus); Rate 250 g/ha, Preemergence) | Plant response rating, Rape (rape (Brassica napus); Rate 500 g/ha, Postemergence) | Plant response rating, Rape (rape (Brassica napus); Rate 500 g/ha, Preemergence) | Sugarbeets plant response rating ([5]; Rate 62 g/ha, Preemergence) | Sugarbeets plant response rating ([5]; Rate 125 g/ha, Postemergence) | Plant response rating, Sugarbeets ([5]; Rate 125 g/ha, Preemergence) | Plant response rating, Sugarbeets ([5]; Rate 250 g/ha, Postemergence) | Plant response rating, Sugarbeets ([5]; Rate 250 g/ha, Preemergence) | Plant response rating, Sugarbeets ([5]; Rate 500 g/ha, Postemergence) | Plant response rating, Sugarbeets ([5]; Rate 500 g/ha, Preemergence) | Velvetleaf plant response rating ([6]; Rate 62 g/ha, Preemergence) | Plant response rating, Velvetleaf ([6]; Rate 125 g/ha, Preemergence) | Plant response rating, Velvetleaf ([6]; Rate 250 g/ha, Preemergence) | Plant response rating, Velvetleaf ([6]; Rate 500 g/ha, Preemergence) | Plant response rating, Wild oats (wild oat (Avena fatua); Rate 500 g/ha, Preemergence)
9: Plant response rating, Bedstraw ([1]; Rate 62 g/ha, Postemergence) | Plant response rating, Bedstraw ([1]; Rate 250 g/ha, Preemergence) | Crabgrass plant response rating ([2]; Rate 62 g/ha, Preemergence) | Plant response rating, Crabgrass ([2]; Rate 250 g/ha, Postemergence) | Plant response rating, Crabgrass ([2]; Rate 500 g/ha, Postemergence) | Giant foxtail plant response rating ([3]; Rate 62 g/ha, Preemergence) | Plant response rating, Giant foxtail ([3]; Rate 125 g/ha, Preemergence) | Plant response rating, Giant foxtail ([3]; Rate 250 g/ha, Postemergence) | Plant response rating, Giant foxtail ([3]; Rate 500 g/ha, Postemergence) | Plant response rating, Rape (rape (Brassica napus); Rate 62 g/ha, Postemergence) | Rape plant response rating (rape (Brassica napus); Rate 62 g/ha, Preemergence) | Rape plant response rating (rape (Brassica napus); Rate 125 g/ha, Postemergence) | Plant response rating, Rape (rape (Brassica napus); Rate 250 g/ha, Postemergence) | Plant response rating, Soybean (soybean (Glycine max); Rate 62 g/ha, Postemergence) | Soybean plant response rating (soybean (Glycine max); Rate 125 g/ha, Postemergence) | Plant response rating, Soybean (soybean (Glycine max); Rate 250 g/ha, Postemergence) | Plant response rating, Soybean (soybean (Glycine max); Rate 500 g/ha, Postemergence) | Plant response rating, Soybean (soybean (Glycine max); Rate 500 g/ha, Preemergence) | Plant response rating, Sugarbeets ([5]; Rate 62 g/ha, Postemergence) | Plant response rating, Velvetleaf ([6]; Rate 500 g/ha, Postemergence) | Plant response rating, Wild oats (wild oat (Avena fatua); Rate 250 g/ha, Preemergence) | Plant response rating, Wild oats (wild oat (Avena fatua); Rate 500 g/ha, Postemergence) | Plant response rating, Ducksalad [9, 11] | Ducksalad plant response rating [9, 12] | Plant response rating, Ducksalad [9, 13] | Plant response rating, Ducksalad [9, 14] | Plant response rating, S. Flatsedge [10, 11] | S. Flatsedge plant response rating [10, 12] | Plant response rating, S. Flatsedge [10, 13] | Plant response rating, S. Flatsedge [10, 14]
1: Plant response rating, Nutsedge ([4]; Rate 62 g/ha, Postemergence) | Plant response rating, Nutsedge ([4]; Rate 500 g/ha, Preemergence)
